Laboratory results published in patent publication US20210393565A1, “PREPARATION FOR USE TO INCREASE THE FORMATION OF ONE OR MORE SPECIALIZED PRO-RESOLVING LIPID MEDIATORS (SPM)” (Evonik Operations GmbH, priority 2018, published 2021).

How the values were obtained:
Type in all cases: cell-based
[1] = tested on: Bacillus megaterium DSM 32963 cells; experiment: Lipidometabolomics (UPLC-MS/MS) of culture supernatants with AvailOm, dissolved or as dispersion; settings: − bile acids, AvailOm dispersion; net after subtraction of cell-free control
From the text: (§1) Bacterial supernatant samples were subjected to lipid extraction using RP-phase solid phase extraction and subsequently analyzed by ultra performance liquid chromatography ESI tandem mass spectrometry (UPLC-MS/MS) according to a published procedure. Under these conditions approximately 40 different LM, including 5-hydroxy-eicosapentaenoic acid 5-HEPE, 8-HEPE, 11-HEPE, 12-HEPE, 15-HEPE, 18-HEPE, 5-hydroxy-eicosatetraenoic acid (5-HETE), 8-HETE, 11-HETE, 12-HETE, 15-HETE, 4-hydroxy-DHA (4-HDHA), 7-HDHA, 13-HDHA, 14-HDHA, 17-HDHA, lipoxin A4 (LXA4), LXB4, resolvin E1 (RvE1), RvE3, resolvin D1-5 (RvD1-5), AT-RvD1, RvD2, protectin D1 (PD1), AT-PD1, maresin 1(MaR1), MaR2, plus 4 fatty acid substrates can be detected with a lower limit of detection of 1 pg.
To investigate if Bacillus megaterium is capable of producing other PUFA oxygenation products in addition to 18-HEPE, a lipidometabolomics screening of supernatants from Bacillus megaterium strain 32963 cultured as in example 4 with AvailOm® was performed, either dissolved or in a dispersion formulation, with or without bile acids. Cell-free preparations of AvailOm® formulations were treated and analyzed in parallel and served as controls for non-enzymatic, spontaneous formation of oxygenation products. Values given in table 6 display net concentrations of products formed, i.e. after subtraction of control values. […] Concentrations of several SPM exceed by far the concentrations of SPM found in human plasma samples, which are typically in a range of ˜20-100 pg/ml. For comparison, human breast milk contains ˜6.000 pg/ml RvE1 and ˜10.000 pg/ml RvD1 [42].

[2] = tested on: 47 additional Bacillus megaterium strains; experiment: Screening of 47 additional strains for SPM production from AvailOm dispersion formulation
From the text: as §1
47 additional Bacillus megaterium strains sourced from various habitats were screened for their SPM production capacity to determine if this is a general phenomenon of the species Bacillus megaterium and to detect strain-specific differences in types and quantities of SPM being produced. Cells were cultured as detailed in example 4, with dispersion formulation of AvailOm® serving as omega-3 fatty acid source. Cell-free preparations of AvailOm® were treated and analyzed in parallel and served as controls for non-enzymatic, spontaneous formation of oxygenation products. […]

[3] = tested on: Bacillus megaterium DSM 33296 cells; experiment: Lipidometabolomics of culture supernatants with AvailOm dispersion formulation; settings: Bacillus megaterium DSM 33296, AvailOm dispersion formulation; net concentration
From the text: as §1
(§2) 47 additional Bacillus megaterium strains sourced from various habitats were screened for their SPM production capacity to determine if this is a general phenomenon of the species Bacillus megaterium and to detect strain-specific differences in types and quantities of SPM being produced. Cells were cultured as detailed in example 4, with dispersion formulation of AvailOm® serving as omega-3 fatty acid source. Cell-free preparations of AvailOm® were treated and analyzed in parallel and served as controls for non-enzymatic, spontaneous formation of oxygenation products. It was observed that all tested strains produced measurable (>1 pg/ml) amounts of various SPM and precursors thereof, that these amounts were hugely different between the strains (up to 2.000 fold), and that concentrations of RvE3 were particularly high (up to 1.3 μg/ml) in most of the strains.
(§3) Values given in table 7 display net concentrations of PUFA oxygenation products formed by two of the top performing strains, Bacillus megaterium DSM 33296 and Bacillus megaterium DSM 33299.

[4] = tested on: Bacillus megaterium DSM 33299 cells; experiment: as above; settings: Bacillus megaterium DSM 33299, AvailOm dispersion formulation; net concentration
From the text: as §1, §2, §3

With `CC[C@H](O)C(O)/C=C/C=C/C=C\C/C=C\C/C=C\CCCC(=O)O` (stereo partly shown) [RvE3, resolvin E3] the “Extracellular concentration of PUFA oxygenation product” value (“Extracellular concentration” below) [1] was 33092 pg/mL, the “concentration produced, highest among the strains” value [2] was “up to 1.3 μg/ml” and the “Extracellular concentration” value [3] was 1322555 pg/mL. For the same compound, the “Extracellular concentration” value [4] was 880739 pg/mL.
